2 molecules from patent publication US20120164671A1, “METHODS FOR MONITORING IMMUNOSUPPRESSANT DRUG LEVELS, RENAL FUNCTION, AND HEPATIC FUNCTION USING SMALL VOLUME SAMPLES” (priority 2008, published 2012) can be followed below.

Like-named read-outs stand apart in the source and are kept apart here.

For the data set the following is noted: human, in vivo. How it is done:
The patient collected an approximately 500 μL blood sample from a fingerstick. The small volume blood sample was collected as described above, using a K2-EDTA collection tube, and timely transported to the testing facility. At the testing facility, the whole blood sample in K2-EDTA was split into 3 fractions: (1) 50 μL for immunosuppressant drug monitoring using tandem mass spectrometry, (2) 50 μL for complete blood count by flow cytometry, and (3) the remainder for various other tests.
The first fraction was prepared by adding 200 μL of ZnSO4 (zinc sulfate) to the fraction, and the cells were lysed by vortexing for 10 seconds. Then 500 μL of a solution containing acetonitrile and internal reference standards (ascomycin: 2 nanograms (ng)/ml, along with cyclosporin D 25 ng/ml) was added, and the sample was mixed by vortexing for 20 seconds. The tubes were then spun down for 4 minutes at 14,000×g (14,000 times gravity). The supernatant was decanted into vials for assay by mass spectrometry.
The patient collected an approximately 500 μL blood sample from a fingerstick. The small volume blood sample was collected using a K2-EDTA collection tube, transported to the testing facility, and divided into three fractions as described above. Each fraction was prepared as described above for the adult patient, and the same immunosuppressant drug monitoring of immunosuppressants, complete blood count, assays for renal function, and assays for hepatic function were performed.

`CO[C@H]1C[C@@H]2CC[C@@H](C)[C@@](O)(O2)C(=O)C(=O)N2CCCC[C@H]2C(=O)O[C@H]([C@H](C)C[C@@H]2CC[C@@H](O)[C@H](OC)C2)CC(=O)[C@H](C)/C=C(\C)[C@@H](O)[C@@H](OC)C(=O)[C@H](C)C[C@H](C)/C=C/C=C/C=C/1C` [Rapamycin]: the “Result (blood level)” value was 3.10 µg/L (female) and 5.10 µg/L (male).
In the case of `C=CC[C@@H]1/C=C(\C)C[C@H](C)C[C@H](OC)[C@H]2O[C@@](O)(C(=O)C(=O)N3CCCC[C@H]3C(=O)O[C@H](/C(C)=C/[C@@H]3CC[C@@H](O)[C@H](OC)C3)[C@H](C)[C@@H](O)CC1=O)[C@H](C)C[C@@H]2OC` [Tacrolimus], the “Result (blood level)” value runs as follows: (female) 10.80 µg/L; (male) 6.80 µg/L.
